# Laboratory results published in PubChem BioAssay (NCI).
# Several values for one entry are separate records, joined by “and”; a condition that tells them apart may be missing. Identical values can stand only once.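 1) Cells in 96-well plates. 2) Compound, 48 h, 5 concentrations. 3) Linear interpolation between surrounding doses. 4) Unreached endpoint = highest concentration. At the GI50, growth is halved. TGI denotes the concentration required for complete inhibition of growth.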
# Key:
# Test in all cases: inhibition of tumour cell growth, NCI panel, 48 h
# [1] = test system: SN12C renal
# [2] = test system: SF-295 CNS
# [3] = test system: UO-31 renal
# [4] = test system: MCF7 breast
# [5] = test system: UACC-62 melanoma
# [6] = test system: A549 NSCLC
# [7] = test system: SNB-19 CNS
# [8] = test system: RPMI-8226 leukemia
# [9] = test system: CAKI-1 renal
# [10] = test system: SK-MEL-28 melanoma
# [11] = test system: EKVX NSCLC
# [12] = test system: SK-MEL-5 melanoma
# [13] = test system: UACC-257 melanoma
# [14] = test system: RXF 393 renal
# [15] = test system: MALME-3M melanoma
# [16] = test system: SW-620 colon
SMILES,TGI [1] [µM],TGI [2] [µM],TGI [3] [µM],TGI [4] [µM],TGI [5] [µM],TGI [6] [µM],TGI [7] [µM],TGI [8],TGI [9] [µM],TGI [10],TGI [11] [µM],TGI [12] [µM],TGI [13] [µM],TGI [14],TGI [15] [µM],TGI [16],GI50 [1] [µM],GI50 [5] [µM],GI50 [9]
COc1ccc2c(c1)nc1n2C(c2c(F)cccc2Cl)SC1 (stereo not drawn),> 100,> 24.8,> 100,> 34.8,> 100,> 50.6,> 58.7,> 47.8 µM,> 100,37.2 µM,> 100,> 43.2,> 43.2,> 22 µM,5.43,> 60.2 µM,–,–,–
COC(=O)/C=C1/N=C(N(C)/N=C/c2ccccc2)NC1=O,> 100,> 100,> 100,> 100,> 100,> 100,> 100,–,> 100,> 100 µM,> 100,> 100,> 100,> 100 µM,> 100,> 100 µM,–,–,–
Cc1ccc2c(=O)c(-c3nnc(N)s3)c[nH]c2n1,> 100,> 100,> 100,> 100,> 100,> 100,> 100,> 100 µM,> 100,> 100 µM,> 100,> 100,> 100,> 100 µM,> 100,> 100 µM,–,–,–
CN(C)c1ccc(/C=C(\NC(=O)c2ccccc2)C(=O)Nc2ccccc2C(=O)O)cc1,> 100,> 100,> 100,> 100,> 100,> 100,> 100,> 100 µM,> 100,> 100 µM,> 100,> 100,> 100,> 100 µM,> 100,> 100 µM,–,–,–
CC(=O)Nc1cc2c(cc1O)CC[C@@H]1[C@@H]2CC[C@]2(C)[C@@H](O)CC[C@@H]12,> 100,> 100,97.9,> 100,> 100,> 100,> 100,> 100 µM,> 100,> 100 µM,> 100,59.8,> 100,> 100 µM,> 100,71.9 µM,48.5,31.2,–
C=C(C)[C@@]1(O)CCC[C@H]1NC(=O)OC(C)(C)C,> 100,> 100,> 100,> 100,–,> 100,> 100,–,> 100,> 100 µM,> 100,> 100,> 100,> 100 µM,> 100,> 100 µM,–,–,–
COc1ccc(-n2c(C)nc3ccc(NC4OCC(O)C(O)C4O)cc3c2=O)cc1 (stereo not drawn),> 100,> 100,> 100,> 100,> 100,–,> 100,49.4 µM and 61.6 µM,> 100,> 100 µM and 57 µM,> 100,> 100,> 100,81.9 µM and 87.8 µM,> 100,> 100 µM and 72.6 µM,–,–,> 100 µM and 39.5 µM
CC(C)(C)OC(=O)NC(Cc1cnc[nH]1)C(=O)N1CCCC1C(N)=O (stereo not drawn),> 100,> 100,> 100,> 100,> 100,> 100,> 100,> 100 µM,> 100,> 100 µM,> 100,> 100,> 100,92.3 µM,> 100,> 100 µM,–,–,–
COC(=O)C(Cc1ccccc1I)C1=CCC2(CC1)OCCO2 (stereo not drawn),–,> 100,66.3,92.7,59.3,82.8,96.8,> 100 µM,> 100,> 100 µM,> 100,34.1,97.1,42.5 µM,56.5,> 100 µM,–,–,–
CC(=O)NCCc1c[nH]c2ccc(Cl)cc12,> 100,> 100,> 100,> 100,> 100,> 100,> 100,> 100 µM,> 100,> 100 µM,> 100,> 100,> 100,> 100 µM,> 100,> 100 µM,–,–,–
CN(C)CCNC(=O)c1cccc2nc3cccc(F)c3nc12,5.48,6.79,4.83,6.56,> 19.8,2.85,> 35,5.65 µM,15.8,11.5 µM,6.16,2.38,3.86,4.11 µM,6.35,5.82 µM,–,–,–
COc1cc(C(N)=O)cc(NC(=O)/C=C/c2ccccc2)c1OC,> 100,> 100,> 100,> 100,> 100,> 100,> 100,> 100 µM,> 100,> 100 µM,> 100,> 100,> 100,> 100 µM,> 100,> 100 µM,–,–,–
O=C1c2ccccc2C(=O)N1CCCCCCNOCCCN1C(=O)c2ccccc2C1=O,> 100,> 100,> 100,88.4,50.3,> 100,> 100,99.4 µM,> 100,> 100 µM,> 100,30.8,86,> 100 µM,> 100,> 100 µM,–,–,–
Cc1ccc2[nH]c3[nH]c(=O)[nH]c(=O)c3c2c1,> 100,> 100,> 100,> 100,> 100,> 100,> 100,> 100 µM,> 100,–,> 100,> 100,> 100,> 100 µM,> 100,> 100 µM,–,–,–
CCN(CC)C(=S)SC1CCOP(=O)(N(CCCl)CCCl)N1C (stereo not drawn),46,> 100,> 96.4,> 100,17.3,> 100,> 100,> 61.2 µM,> 86.8,42.2 µM,> 96.4,30.8,> 56.1,76.1 µM,45.9,> 34.9 µM,–,–,–
CN(C)CCCNc1nnc(NCCCN(C)C)c2c(=O)c3sccc3[nH]c12,50.9,> 54,9.15,> 100,23.7,> 78.9,> 100,57.2 µM,> 48.9,> 84.9 µM,65.6,16,> 100,42.1 µM,35.5,> 72.2 µM,–,–,–
Cc1cc2c(cc1C)[n+](=O)c(N1CCN(c3ccc([N+](=O)[O-])cc3)CC1)c(C#N)n2[O-],> 100,37.8,> 100,> 100,59.9,> 100,49.6,> 100 µM,> 100,> 100 µM,> 100,> 100,> 100,29.9 µM,> 100,> 100 µM,–,–,–
CCCN(CCCCN1C(=O)c2ccccc2C1=O)CC1COc2ccccc2O1 (stereo not drawn),> 100,> 100,> 100,> 100,> 100,> 100,> 100,84.9 µM,> 100,> 100 µM,> 100,> 100,> 100,> 100 µM,> 100,> 100 µM,–,–,–
CC1OC(OC2C(O)COC(OC3C(C)OC(OC4C(OC(=O)[C@]56CCC(C)(C)C[C@@H]5C5=CCC7[C@@]8(C)C[C@H](O)[C@H](OC9OC(CO)C(O)C(OC%10OC(CO)C(O)C(O)C%10O)C9O)[C@@](C)(CO)[C@@H]8CC[C@@]7(C)[C@]5(C)CC6)OCC(O)C4O)C(O)C3OC3OCC(O)C(O)C3O)C2O)C(O)C(O)C1O (stereo partly drawn),3.87,9.81,9.92,43.5,12.6,4.29,20.3,76.8 µM,16.3,5.17 µM,15.6,15,16.8,21.6 µM,29.9,20.6 µM,–,–,–
CCCCCC(=O)OCC1(CO)C/C(=C\CC(C(C)C)C(C)C)C(=O)O1 (stereo not drawn),> 100,> 100,> 100,> 100,> 100,> 100,> 100,–,> 100,> 100 µM,> 100,> 100,> 100,> 100 µM,> 100,64.4 µM,–,–,–
COC(=O)NN=C(c1ccc(Cl)cc1)c1ccc(Cl)cc1,> 100,–,> 100,> 100,> 100,> 100,> 100,> 100 µM,> 100,> 100 µM,> 100,> 100,> 100,> 100 µM,> 100,> 100 µM,–,–,–
C#CCOC(=O)C(N)CSSCC(N)C(=O)O (stereo not drawn),> 100,–,> 100,> 100,> 100,> 100,> 100,> 100 µM,> 100,> 100 µM,> 100,> 100,> 100,> 100 µM,> 100,> 100 µM,–,–,–
CCOC(=O)c1cc2c([nH]1)C(=O)CC1=C2CCN1Cc1ccccc1,35.3,34.2,29.5,32.3,28.4,73.5,31.8,16.6 µM,15,32.7 µM,37.4,–,36.1,30.5 µM,13.2,23.3 µM,–,–,–
c1ccc2c3c([nH]c2c1)C1c2[nH]c4ccccc4c2CCN1CC3,32.6,34.3,18.5,30.8,33.9,36.2,–,> 100 µM,34.2,31.7 µM,20.2,28,28.6,27 µM,30,45.5 µM,–,–,–
CCN1CC2=C(NC(=S)NC2c2cc(OC)c(OC)c(OC)c2)/C(=C/c2cc(OC)c(OC)c(OC)c2)C1 (stereo not drawn),–,> 100,67.7,> 100,> 100,> 100,> 100,42.9 µM,> 100,47.2 µM,> 100,40.1,> 100,> 100 µM,31.5,> 100 µM,–,–,–
COC(=NCCC1=CCCCC1)OC,–,> 100,> 100,> 100,> 100,> 100,> 100,85.8 µM,> 100,> 100 µM,> 100,> 100,> 100,> 100 µM,> 100,> 100 µM,–,–,–
Oc1c(-c2ccccc2)sc2ccccc12,–,45.7,84.6,65.8,> 100,81.4,> 100,43.5 µM,13.6,> 100 µM,86.6,54.5,98.9,45.1 µM,59.6,> 100 µM,–,–,–
O=C(/C=C(\Nc1ccccc1O)c1ccccc1)C(=O)NC12CC3CC(CC(C3)C1)C2,> 10,> 10,> 10,> 10,–,–,–,> 10 µM,> 10,> 10 µM,> 10,> 10,> 10,> 10 µM,> 10,> 10 µM,–,–,–
Cc1ccc(S(=O)(=O)Oc2ccc(OS(=O)(=O)c3ccc(C)cc3)c3c2C(=O)c2ccccc2C3=O)cc1,> 100,–,> 100,> 100,> 100,> 100,> 100,–,> 100,> 100 µM,> 100,> 100,> 100,68.6 µM,> 100,> 100 µM,–,–,–
